Earlier results on one compound are cited in patent US20060159736A1, “Liposome formulations of boronic acid compounds” (priority 2004, published 2006).

Structures are written as SMILES. Where two headings read alike, the source gives them in different places.

One data set deals with tumor lines. The settings on record: range of tumor lines.
For data set [1], the system named is human prostate cancer xenograft. The settings on record: human prostate xenograft models.
In another data set the test system is lung cancer xenograft. The settings on record: lung cancer xenograft models.
For data set [2] the following is noted: given intravenously once or twice weekly; patients with solid tumors.
For data set [3] the following is noted: intravenous bolus on days 1, 4, 8, and 11 of a 3-week cycle.
Data set [4] has as its system cancer tissues (breast, ovarian, prostate, lung) and tumors (pancreatic tumors, lymphomas, melanoma).

Turning to `CC(C)C[C@H](NC(=O)[C@H](Cc1ccccc1)NC(=O)c1cnccn1)B(O)O` [bortezomib], the cytotoxicity result with tumor lines is reported as “showed cytotoxicity against a range of tumor lines”. The antitumor activity entry (in data set [1]; in the data set with lung cancer xenograft) was “had antitumor activity” in each case. The values for the maximum tolerated dose in data set [2] and in data set [3] were 1.3 mg/m^2 and 1.56 mg/m^2, respectively. The “activity against cancer tissues and tumors” value in data set [4] is “activity against a variety of cancer tissues”.
